From PMC10876487 (Synthetic and Systems Biotechnology, 2024)

Target: T1, ALDH-40 (Bacillus subtilis, UniProt P94358)
T1 sequence (P94358 1-485): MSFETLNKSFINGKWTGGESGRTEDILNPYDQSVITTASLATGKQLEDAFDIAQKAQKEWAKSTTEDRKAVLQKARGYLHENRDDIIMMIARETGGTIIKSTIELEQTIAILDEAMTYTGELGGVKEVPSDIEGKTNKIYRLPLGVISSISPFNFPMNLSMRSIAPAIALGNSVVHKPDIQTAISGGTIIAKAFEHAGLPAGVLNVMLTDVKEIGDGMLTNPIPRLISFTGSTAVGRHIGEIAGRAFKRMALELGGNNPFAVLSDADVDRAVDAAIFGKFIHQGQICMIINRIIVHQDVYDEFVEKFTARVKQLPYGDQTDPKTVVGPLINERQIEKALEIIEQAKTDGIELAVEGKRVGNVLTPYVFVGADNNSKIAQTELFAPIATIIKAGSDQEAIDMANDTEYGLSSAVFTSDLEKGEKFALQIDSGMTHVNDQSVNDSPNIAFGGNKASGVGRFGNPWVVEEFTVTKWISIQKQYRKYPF
Test: HPLC, Michaelis-Menten fit
Type: biochemical
Conditions: 0.5 μM enzyme, NAD+ 2 mM, 50 mM Tris-HCl pH 8.0, 30 °C

Which Km does the source give for cinnamaldehyde [2a] here?
The Km was 10 ± 2.7 mM.
